# Entries after “also recorded” stand apart in the source; their conditions may differ.
# Tests used:
# [1] = Solid state chemical stability; type: physicochemical
# Description: The crystalline free base form of 3-{3-[1-(4-Dimethylaminomethyl-phenylamino)-1-phenyl-meth-(Z)-ylidene]-2-oxo-2,3-dihydro-1H-indol-6-yl}-propynoic acid ethylamide according to this invention has further added properties, such as e.g. no sensitivity towards heat, humidity and photolysis in solid state (solid state chemical stability, e.g. 3d @ 70° C. and >90% r.h.: <1% decomposition; 3d @ 105° C.: <1.5% decomposition; 24 h under UV-radiation @ 250 W/m^2: <1.5% decomposition).
# [2] = Water sorption isotherms (DVS); type: physicochemical; details: sorption isotherms at 25° C.
# Description: To study the hygroscopical behaviour of this material, sorption isotherms are registered, e.g. on a DVS-1 water sorption monitor from Surface Measurement Systems. Adsorption and desorption isotherms are performed at 25° C. with 10% r.h. step intervals ranging from 10% r.h. up to 90% r.h.
# [3] = tested on: tumors derived from melanoma cell line G361^V600V/E; test: Human melanoma xenograft G361 in nude mice; type: in vivo; details: oral qd, Compound A 10 mg/kg, vemurafenib 120 mg/kg; for TGI@d23 [%]: day 23; for CR@d30 [x/7] / PR@d30 [x/7]: day 30
# Description: Athymic female BomTac:NMRI-Foxn1^nu mice about six weeks of age are allowed to adjust to ambient conditions for at least five days before they are used for experiments. The animals are housed under standardized conditions in groups of 7-10 in Macrolon® type III cages. Standardized diet (PROVIMI KLIBA) and autoclaved tap water are provided ad libitum. To establish subcutaneous tumors, cells are harvested by trypsinization, centrifuged, washed and resuspended in ice-cold PBS+5% FCS. 100 μL of cell suspension containing, depending on cell type, about 10^6 to 10^7 cells are injected subcutaneously into the right flank of a nude mouse (one site per mouse). Mice are randomly distributed between the treatment and the vehicle control group (12 days after cell injection) when tumors are well established and have reached volumes of 40-120 mm^3
# The tumor diameter is measured three times a week (Monday, Wednesday and Friday) with a caliper. The volume of each tumor (in mm^3) is calculated according to the formula “tumor volume=length×diameter^2×π/6”. To monitor side effects of treatment, mice are inspected daily for abnormalities and body weight is determined three times a week (e.g. Monday, Wednesday and Friday). Animals are sacrificed at the end of the study about ten weeks after start of treatment. Animals with necrotic tumors or tumor sizes exceeding 1500 mm^3 are sacrificed early during the studies for ethical reasons.
# For a quick overview of possible treatment effects the median of the tumor volume of each treatment group T is related to the median of the tumor volume of control C. Tumor growth inhibition (TGI) from day 1 until day d is calculated as: […]
# wherein • C1 and T1 represent the median tumor volumes in the control and treatment groups at start of the experiment at day 1 and • Cd and Td represent the median tumor volumes in the control and treatment groups at end of the experiment at day d.
# Mice with tumors derived from melanoma cell line G361^V600V/E are treated orally with the B-Raf inhibitor vemurafenib qd at doses of 120 mg/kg or with 3-{3-[1-(4-Dimethylaminomethyl-phenylamino)-1-phenyl-meth-(Z)-ylidene]-2-oxo-2,3-dihydro-1H-indol-6-yl}-propynoic acid ethylamide (Compound A) qd at doses of 10 mg/kg or with the vehicle only. In addition, mice are treated orally with B-Raf inhibitor vemurafenib qd at doses of 120 mg/kg in combination with Compound A qd at doses of 10 mg/kg.
# [4] = tested on: H460 cells; test: Polyploidy by DNA content analyses (Cellomics ArrayScan); type: cell-based, human; details: 7 nM, 42 h exposure
# [5] = tested on: phospho-ERK in SK-MEL-28 cells; test: Fast Active Cell-Based ELISA (FACE) SK-MEL-28 p-ERK; details: Homo sapiens, SK-MEL 28 melanoma cells, read-out: EC50 for reduction of phospho-ERK
# Description: Fast Active Cell-Based ELISA (FACE) SK-MEL-28 p-ERK:
# The supernatant is removed.
# [6] = Solution state stability; type: physicochemical
# Description: In solution state, the compound of formula (I) according to the invention show no or only minor sensitivity towards hydrolysis at pH 2.2-10 (solution state stability, e.g. 0.1M HCl, 8 h @ 37° C.: <1% decomposition; Mc Ilvaine buffer 7.4, 3d @ 60° C.: <1,5% decomposition).
# [7] = tested on: phospho-histone H3 in NCI-H460 cells; test: Analysis of histone H3 phosphorylation in NCI-H460 cells (Cellomics); type: cell-based; details: Homo sapiens, synchronized H460 NSCLC cells, 1 h treatment, molecular phosphorylation assay, read-out: EC50 for reduction of phospho-histone H3
# Description: This CDK1 inhibitor arrests cells in G2. […] The final DMSO concentration was 0.1%.
Compound,"decomposition, solid state ([1]; 24 h under UV-radiation @ 250 W/m^2)","decomposition, solid state ([1]; 3d @ 70° C. and >90% r.h.)","decomposition, solid state ([1]; 3d @ 105° C.)",hygroscopical behaviour [2],mortality [x/7] [3],TGI@d23 [%] [3],CR@d30 [x/7] [3],PR@d30 [x/7] [3],polyploid cells [4],EC50 [5],"decomposition, solution state ([6]; 0.1M HCl, 8 h @ 37° C.)","decomposition, solution state ([6]; Mc Ilvaine buffer 7.4, 3d @ 60° C.)",EC50 [7]
"CCNC(=O)C#Cc1ccc2c(c1)NC(=O)/C2=C(\Nc1ccc(CN(C)C)cc1)c1ccccc1 [3-{3-[1-(4-Dimethylaminomethyl-phenylamino)-1-phenyl-meth-(Z)-ylidene]-2-oxo-2,3-dihydro-1H-indol-6-yl}-propynoic acid ethylamide]",< 1.5%,< 1%,< 1.5%,not hygroscopic; also recorded: non-hygroscopic,–,–,–,–,–,–,–,–,–
"CCCS(=O)(=O)Nc1ccc(F)c(C(=O)c2c[nH]c3ncc(-c4ccc(Cl)cc4)cc23)c1F [vemurafenib, reference compound]",–,–,–,–,0 x/7,44%,0 x/7,0 x/7,–,–,–,–,–
"CCNC(=O)C#Cc1ccc2c(c1)NC(=O)/C2=C(\Nc1ccc(CN(C)C)cc1)c1ccccc1 [Compound A, 3-{3-[1-(4-Dimethylaminomethyl-phenylamino)-1-phenyl-meth-(Z)-ylidene]-2-oxo-2,3-dihydro-1H-indol-6-yl}-propynoic acid ethylamide]",–,–,–,–,1 x/7,45%,0 x/7,0 x/7,81%,59 nM,< 1%,"< 1,5%",44 nM

# From patent publication US20140018372A1, “CRYSTALLINE FORM OF A INDOLINONE DERIVATIVE AND ITS USE” (BOEHRINGER INGELHEIM INTERNATIONAL GMBH, priority 2012, published 2014)
